Experimental data reported in patent publication US20220411525A1, “BCMA AS A TARGET FOR T CELL REDIRECTING ANTIBODIES IN B CELL LYMPHOMAS” (Janssen Pharmaceutica NV, priority 2021, published 2022).

Test system: primary CLL cells
Experiment: Soluble BCMA ELISA in supernatants of CLL cells
Assay type: cell-based, human
Settings: 100 nM, 24-48 h
Description: Primary CLL samples were stained for BCMA expression by flow cytometry and compared to isotype controls. […] As provided in FIG. 2A, CLL cells were cultured and basal levels of BCMA were assessed by flow cytometry and compared to isotype controls. (n=25). For FIG. 2B, CLL cells were treated for 24 or 48h with 0nM or 100 nM γ-secretase inhibitor and BCMA was assessed by flow cytometry. Values are represented as fold increase compared to medium control. (n=12-28). FIG. 2C provides basal levels of BCMA compared to isotype control among CLL patients with mutated or unmutated IgVH. (n=4-10). FIG. 2D illustrates the fold increase of BCMA after 24-48 h treatment with 100nM γ-secretase inhibitor compared to medium control among CLL patients with mutated or unmutated IgVH. (n=5-13). FIG. 2E provides the results of an assessment of BCMA mRNA relative to GAPDH control by qPCR after primary CLL samples were treated without or with 100 nM γ-secretase inhibitor for 24 h. (n=9). […] (n=4-12) The P value was calculated by Wilcoxon test (FIGS. 2A-2B), Mann Whitney test (FIGS. 2B, 2C, 2D) or paired t test (FIGS. 2E, F). […]
sBCMA ELISA. […] After 24 or 48 h supernatants were harvested and stored at −20° C. soluble BCMA (sBCMA) in supernatants were measured by ELISA using antibody pairs for BCMA.

With C[C@H](NC(=O)[C@@H](O)c1cc(F)cc(F)c1)C(=O)N[C@@H]1C(=O)N(C)c2ccccc2-c2ccccc21 [Ly411575] the “sBCMA levels in supernatants of CLL cells” value was “marked decreases”.
